These results are taken from patent EP4592286A1, “MACROCYCLIC NITROGEN-CONTAINING CROWN ETHER COMPOUND AND USE THEREOF AS PROTEIN KINASE INHIBITOR” (Artivila Biopharma, priority 2022, dated 2024).

The target of one data set is TYK2 (Homo sapiens, UniProt P29597). The data set can be described thus: experiment of inhibiting kinase activity, TYK2. The following applies: read-out: inhibition rate TYK2. Format: biochemical. Here is the method:
(§1) The inhibition rates of tested compounds on JAK1, JAK2, JAK3, TYK2, CDK7, CDK9, EGFR (T790M) and LRRK2 kinases were measured. The test concentrations of the compounds were 10 nM and 100 nM, and the detection was performed by replicate wells. Alternatively, compounds were 3-fold serial diluted from 10 µM for 10 concentrations in replicate wells.

A further data set has as its target JAK1 (Homo sapiens, UniProt P23458). The experiment in a line: experiment of inhibiting kinase activity (Caliper mobility shift assay), JAK1. The data set is classed as biochemical. The following applies: read-out: inhibition rate JAK1. In outline: (§2)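 Steps: compound and kinase in 1× kinase buffer, 10 min at room temperature; ATP plus substrate added to start; reaction run at room temperature, then stopped. Conversion read by Caliper; IC50 from four-parameter variable-slope fit of % inhibition against log concentration.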

For the next data set, the target named is T1, JAK3 (Homo sapiens, UniProt P52333).
T1 sequence (P52333 1-1124): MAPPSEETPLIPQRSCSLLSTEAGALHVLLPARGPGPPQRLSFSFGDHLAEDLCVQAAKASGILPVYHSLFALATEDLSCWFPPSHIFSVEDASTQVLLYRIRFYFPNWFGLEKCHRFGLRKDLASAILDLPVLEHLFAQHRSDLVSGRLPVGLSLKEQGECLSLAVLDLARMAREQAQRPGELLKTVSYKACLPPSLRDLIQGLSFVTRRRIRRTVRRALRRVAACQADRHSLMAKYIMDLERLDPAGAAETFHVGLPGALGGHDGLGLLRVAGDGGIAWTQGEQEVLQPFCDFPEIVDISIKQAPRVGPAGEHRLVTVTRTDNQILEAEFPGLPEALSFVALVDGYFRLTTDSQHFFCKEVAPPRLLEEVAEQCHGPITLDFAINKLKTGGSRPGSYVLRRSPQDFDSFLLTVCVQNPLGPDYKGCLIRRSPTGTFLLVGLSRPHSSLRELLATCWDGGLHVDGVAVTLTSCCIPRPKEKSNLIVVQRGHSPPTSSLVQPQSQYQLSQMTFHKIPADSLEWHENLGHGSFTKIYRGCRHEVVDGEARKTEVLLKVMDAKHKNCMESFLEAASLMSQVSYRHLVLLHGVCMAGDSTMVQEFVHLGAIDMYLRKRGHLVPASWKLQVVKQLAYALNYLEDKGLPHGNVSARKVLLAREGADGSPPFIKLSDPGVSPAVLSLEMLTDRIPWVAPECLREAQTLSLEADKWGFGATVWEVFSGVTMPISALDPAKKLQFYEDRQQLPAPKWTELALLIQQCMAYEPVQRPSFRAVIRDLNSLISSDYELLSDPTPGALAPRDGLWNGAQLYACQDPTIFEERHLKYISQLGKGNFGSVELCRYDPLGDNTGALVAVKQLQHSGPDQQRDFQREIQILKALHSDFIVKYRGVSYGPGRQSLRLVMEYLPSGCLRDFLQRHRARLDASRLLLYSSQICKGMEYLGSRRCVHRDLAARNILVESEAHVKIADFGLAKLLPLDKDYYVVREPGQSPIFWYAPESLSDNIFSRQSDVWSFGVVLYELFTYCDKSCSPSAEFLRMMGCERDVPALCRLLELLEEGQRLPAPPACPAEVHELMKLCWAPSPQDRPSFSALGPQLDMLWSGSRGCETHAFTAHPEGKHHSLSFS
The experiment in a line: experiment of inhibiting kinase activity (Caliper mobility shift assay), JAK3. The following applies: read-out: inhibition rate JAK3; for inhibition at 0.01 µM: at 10 nM. The data set is classed as biochemical. In outline: as §2

The next data set deals with CDK9 (Homo sapiens, UniProt P50750). The data set can be described thus: experiment of inhibiting kinase activity (Caliper mobility shift assay), CDK9. Format: biochemical. The following applies: at 100 nM; read-out: inhibition rate CDK9. Here is the method:
as §1
The inhibitory effects of the compounds on JAK1, JAK2, JAK3, CDK7 and CDK9 kinases were detected by the method of Caliper mobility shift assay. 250 nL of the compound at 100-fold final concentration was transferred to a destination plate 384-well-plate by using a liquid handler Echo 550. A kinase solution at 2.5-fold final concentration was prepared with 1×kinase buffer. 10 µL of the kinase solution with 2.5-fold final concentration was added to compound wells and positive control wells; and 10 µL of 1×kinase buffer was added to negative control wells. The mixture was centrifuged at 1000 rpm for 30 seconds and then incubated at room temperature for 10 minutes. A mixed solution of ATP and kinase substrate at 5/3-fold final concentration was prepared with 1×kinase buffer, and 15 µL of the mixed solution of ATP and substrate at 5/3-fold final concentration was added to start the reaction. The 384-well plate was centrifuged at 1000 rpm for 30 seconds, shaked and mixed evenly, then incubated at room temperature for a corresponding time. 30 µL of stop solution was added to stop the kinase reaction, the mixture was centrifuged at 1000 rpm for 30 seconds, and shaked and mixed evenly. The conversion rate was read by Caliper EZ Reader. The conversion inhibition rate%=(average positive control conversion rate%-sample conversion rate%)/(average positive control conversion rate%-average negative control conversion rate%). Where negative control wells represent the conversion readings of the background well of kinase buffer; and positive control wells represent the conversion readings of wells without compound inhibition. With the log value of concentration as the x axis and the percentage inhibition rate as the y axis, the dose-response curve was fitted by the log (inhibitor) vs. response-variable slope of the analyzing softwar GraphPad Prism 5, and the IC50 values of each compound on enzyme activity were obtained. Calculation formula is as follows: y=Bottom+(Top-Bottom)/(1+10^((LogIC50-x)×hillslope)), where x is logarithm of inhibitor concentration; and Y is % inhibition rate.

The target in another data set is JAK2 (Homo sapiens, UniProt O60674). The data set can be described thus: experiment of inhibiting kinase activity (Caliper mobility shift assay), JAK2. The data set is classed as biochemical. The following applies: read-out: inhibition rate JAK2; for inhibition at 0.01 µM: at 10 nM. In outline:
as §2

In a further data set the target is CDK7 (Homo sapiens, UniProt P50613). The experiment in a line: experiment of inhibiting kinase activity (Caliper mobility shift assay), CDK7. The data set is classed as biochemical. The following applies: read-out: inhibition rate CDK7. In outline: as §2
Data set [1] addresses T2, LRRK2 (Homo sapiens, UniProt Q5S007). The experiment in a line: experiment of inhibiting kinase activity, LRRK2. Format: biochemical. The following applies: read-out: inhibition rate LRRK2; for inhibition at 0.01 µM: at 10 nM. Here is the method: as §1
The nature of data set [2]: measurement of the solubility of compounds in water and diluted hydrochloric acid. The data set is classed as physicochemical. The following applies: thermodynamic from solid; for solubility at 1 h: simulated gastric fluid, diluted hydrochloric acid solution A (pH-1.5), room temperature; for solubility: ultrapure water (pH-6), room temperature overnight. Here is the method: Example 117: measurement of the solubility of compounds in water and diluted hydrochloric acid
The compounds were dissolved in acetonitrile (LCMS pure) and prepared into standard samples having the concentration gradient of 1000 µg/mL, 500 µg/mL, 250 µg/mL, 125 µg/mL, 62.5 µg/mL, and 31.25 µg/mL.
About 1.0 mg of the powder of the compound to be tested was weighed and added to 0.3 mL of ultrapure water (pH-6), the resulting mixture was shaked thoroughly at room temperature overnight and centrifuged, and the supernatant was taken and diluted 10 times with acetonitrile. The sample was analyzed after mixing evenly.
153.8 µL of 6 M HCl was pipetted, 20 mL of water was added, and mixed evenly to prepare diluted hydrochloric acid solution A (pH-1.5). About 1.0 mg of the powder of the compound to be tested was weighed and added to 0.3 mL of diluted hydrochloric acid solution A, the resulting mixture was shaked thoroughly at room temperature for 1 hour and centrifuged, and the supernatant was taken and diluted 10 times with acetonitrile. The sample was analyzed after mixing evenly.
The standard sample and the sample to be tested were analyzed by Shimadzu LCMS-2020, where chromatographic column was Skim-psck GIST 5 µm C18 2.1*[…]; mobile phase A was water and mobile phase B was methanol; and flow rate was 0.3 mL/min. The gradient of B was as the following: 0 min: 10%; 0-1.0 min: 10%; 1.0-2.5 min: 95%; 3.0-4.0 min: 95%; 4.0-4.1 min: 10%; 4.1-6.0 min: 10%.
The relationship between the concentration and peak area of the standard sample was ploted into a standard curve, and the concentration of the sample to be tested was calibrated using this standard curve. Compound solubility = concentration of the sample to be tested × 10 [formula]

Data set [3] addresses T2, LRRK2. The experiment in a line: experiment of inhibiting LRRK2 kinase activity (ADP-Glo method). The following applies: Table 4. Format: biochemical. Here is the method: The inhibitory effect of the compounds on the activity of LRRK2 kinase was detected by ADP-Glo method. The diluted solutions of the compounds were transfered to a 384-well plate (784075, Greiner), the plate was sealed and centrifuged at a speed of 1000 g for 1 minute. A kinase solution at 2-fold final concentration was prepared with 1×kinase buffer, 2.5 µl of the kinase solution with 2-fold final concentration was added to the wells, the plate was centrifuged at 1000 g for 30 seconds, and left at room temperature for 10 minutes. A mixed solution of ATP and kinase substrate at 2-fold final concentration was prepared with 1×kinase buffer, and 2.5 µL of mixed solution of ATP and substrate at 2-fold final concentration was added to start the reaction. The plate was centrifuged at 1000 g for 30 seconds, sealed and left at room temperature for 2 hours. 4 µL of ADP-Glo reagent was added and incubated at room temperature for 40 minutes; 8 µL kinase detection reagent was added and incubated at room temperature for another 40 minutes. The luminescence signal value was detected on Envision 2104 microplate reader. The conversion inhibition rate%=100-(compound signal value-positive control signal value)/(blank control signal value-positive control signal value)×100.
The IC50 was calculated with GraphPad 6.0 and the dose-responsive curve of the compounds was plotted as follows: y=Bottom+(Top-Bottom)/(1+10^((logic50-x)×hillslope)), where x was logarithm of inhibitor concentration; and y was % inhibition rate.
In general terms: ADP-Glo turns the ADP formed in a reaction into a luminescent signal.

Values after ≈ are worked out from the molar mass of the structure shown.

Chain of JAK2 (O60674 whole entry): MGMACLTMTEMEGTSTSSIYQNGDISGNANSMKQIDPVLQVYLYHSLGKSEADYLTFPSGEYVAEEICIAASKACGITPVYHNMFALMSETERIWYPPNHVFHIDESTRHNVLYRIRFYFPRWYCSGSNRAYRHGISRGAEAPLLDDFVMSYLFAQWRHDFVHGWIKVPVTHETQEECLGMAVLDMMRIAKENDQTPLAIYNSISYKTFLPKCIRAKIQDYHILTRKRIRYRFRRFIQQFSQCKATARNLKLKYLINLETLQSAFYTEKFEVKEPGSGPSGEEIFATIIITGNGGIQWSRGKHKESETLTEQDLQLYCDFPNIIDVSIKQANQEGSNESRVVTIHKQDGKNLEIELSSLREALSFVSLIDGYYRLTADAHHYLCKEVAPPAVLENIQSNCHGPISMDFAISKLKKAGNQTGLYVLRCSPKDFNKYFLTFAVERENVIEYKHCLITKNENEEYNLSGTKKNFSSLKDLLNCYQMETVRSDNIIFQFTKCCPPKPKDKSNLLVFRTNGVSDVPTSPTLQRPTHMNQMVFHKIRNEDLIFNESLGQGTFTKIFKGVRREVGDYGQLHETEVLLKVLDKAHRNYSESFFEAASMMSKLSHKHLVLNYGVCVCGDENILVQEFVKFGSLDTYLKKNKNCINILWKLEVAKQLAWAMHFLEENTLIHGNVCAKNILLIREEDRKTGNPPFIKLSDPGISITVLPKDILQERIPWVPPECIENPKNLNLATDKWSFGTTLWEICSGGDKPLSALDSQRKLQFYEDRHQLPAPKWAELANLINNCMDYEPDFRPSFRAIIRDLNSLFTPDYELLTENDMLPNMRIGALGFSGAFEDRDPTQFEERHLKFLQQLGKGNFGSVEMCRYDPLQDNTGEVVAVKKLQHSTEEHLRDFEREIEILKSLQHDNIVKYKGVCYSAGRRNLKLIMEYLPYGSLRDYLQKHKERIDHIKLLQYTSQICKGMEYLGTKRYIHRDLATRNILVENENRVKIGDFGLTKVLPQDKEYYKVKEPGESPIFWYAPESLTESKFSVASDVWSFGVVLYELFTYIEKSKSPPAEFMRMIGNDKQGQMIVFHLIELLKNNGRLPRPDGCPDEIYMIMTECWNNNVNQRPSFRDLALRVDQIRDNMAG
T2 sequence (Q5S007 whole entry): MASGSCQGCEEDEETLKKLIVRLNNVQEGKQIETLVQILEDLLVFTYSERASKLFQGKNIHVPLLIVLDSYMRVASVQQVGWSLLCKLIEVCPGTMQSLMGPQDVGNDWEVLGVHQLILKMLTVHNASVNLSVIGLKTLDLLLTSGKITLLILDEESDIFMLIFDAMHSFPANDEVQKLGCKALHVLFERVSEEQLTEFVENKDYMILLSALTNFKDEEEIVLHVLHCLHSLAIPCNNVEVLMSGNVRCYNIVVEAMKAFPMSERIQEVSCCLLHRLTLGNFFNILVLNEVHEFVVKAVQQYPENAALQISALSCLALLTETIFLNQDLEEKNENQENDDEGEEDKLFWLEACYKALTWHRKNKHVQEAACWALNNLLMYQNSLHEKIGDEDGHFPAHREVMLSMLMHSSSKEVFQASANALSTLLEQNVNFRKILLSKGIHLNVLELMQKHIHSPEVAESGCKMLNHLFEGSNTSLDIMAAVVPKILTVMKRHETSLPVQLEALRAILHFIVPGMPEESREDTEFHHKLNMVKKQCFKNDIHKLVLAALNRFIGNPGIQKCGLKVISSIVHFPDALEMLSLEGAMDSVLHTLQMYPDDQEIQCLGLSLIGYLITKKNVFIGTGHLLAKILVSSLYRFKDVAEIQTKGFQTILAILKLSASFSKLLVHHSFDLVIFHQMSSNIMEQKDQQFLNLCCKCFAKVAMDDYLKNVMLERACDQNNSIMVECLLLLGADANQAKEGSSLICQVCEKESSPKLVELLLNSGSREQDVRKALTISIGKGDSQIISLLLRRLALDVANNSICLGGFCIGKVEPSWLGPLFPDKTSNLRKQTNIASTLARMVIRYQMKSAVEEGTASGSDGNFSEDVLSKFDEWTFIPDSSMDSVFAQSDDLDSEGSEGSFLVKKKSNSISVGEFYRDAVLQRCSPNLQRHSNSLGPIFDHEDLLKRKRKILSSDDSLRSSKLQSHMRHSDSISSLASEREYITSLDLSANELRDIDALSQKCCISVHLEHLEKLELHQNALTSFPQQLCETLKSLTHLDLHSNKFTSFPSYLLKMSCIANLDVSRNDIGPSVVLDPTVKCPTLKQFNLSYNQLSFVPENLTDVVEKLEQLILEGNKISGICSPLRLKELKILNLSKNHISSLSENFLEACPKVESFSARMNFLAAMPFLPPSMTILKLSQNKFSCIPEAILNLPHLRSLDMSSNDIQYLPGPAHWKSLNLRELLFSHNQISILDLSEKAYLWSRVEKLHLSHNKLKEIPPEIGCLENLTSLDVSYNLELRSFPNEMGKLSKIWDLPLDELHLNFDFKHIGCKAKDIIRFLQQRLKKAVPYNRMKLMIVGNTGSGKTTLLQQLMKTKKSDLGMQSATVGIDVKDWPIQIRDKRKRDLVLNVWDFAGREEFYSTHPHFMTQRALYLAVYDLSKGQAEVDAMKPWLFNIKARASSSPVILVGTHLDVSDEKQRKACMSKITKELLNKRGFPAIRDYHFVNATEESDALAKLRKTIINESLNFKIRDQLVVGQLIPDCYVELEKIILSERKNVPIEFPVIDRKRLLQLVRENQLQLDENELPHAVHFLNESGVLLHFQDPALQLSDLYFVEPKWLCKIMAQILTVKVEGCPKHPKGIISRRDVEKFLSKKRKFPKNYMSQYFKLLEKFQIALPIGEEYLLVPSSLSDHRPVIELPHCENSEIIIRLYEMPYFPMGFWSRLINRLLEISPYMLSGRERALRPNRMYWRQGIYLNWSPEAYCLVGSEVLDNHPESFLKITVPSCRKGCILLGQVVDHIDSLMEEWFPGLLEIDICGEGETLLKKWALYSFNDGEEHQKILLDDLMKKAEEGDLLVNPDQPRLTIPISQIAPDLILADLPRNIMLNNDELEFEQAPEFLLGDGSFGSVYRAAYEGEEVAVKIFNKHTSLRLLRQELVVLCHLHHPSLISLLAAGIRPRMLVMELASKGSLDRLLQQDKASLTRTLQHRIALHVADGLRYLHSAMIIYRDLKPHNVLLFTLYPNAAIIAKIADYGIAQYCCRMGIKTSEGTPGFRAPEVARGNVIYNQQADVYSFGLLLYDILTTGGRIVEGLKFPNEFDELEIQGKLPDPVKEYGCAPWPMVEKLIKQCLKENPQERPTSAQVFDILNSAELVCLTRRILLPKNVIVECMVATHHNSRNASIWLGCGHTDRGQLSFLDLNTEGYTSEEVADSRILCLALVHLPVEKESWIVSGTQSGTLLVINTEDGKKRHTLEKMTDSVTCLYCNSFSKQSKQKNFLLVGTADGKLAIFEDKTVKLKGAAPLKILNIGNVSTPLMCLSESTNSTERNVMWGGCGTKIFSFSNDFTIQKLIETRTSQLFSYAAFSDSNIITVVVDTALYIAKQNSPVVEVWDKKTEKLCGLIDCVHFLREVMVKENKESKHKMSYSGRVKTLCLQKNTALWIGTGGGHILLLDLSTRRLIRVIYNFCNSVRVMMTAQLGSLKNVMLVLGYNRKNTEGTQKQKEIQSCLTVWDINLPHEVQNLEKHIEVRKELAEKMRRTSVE
Chain of JAK1 (P23458 whole entry): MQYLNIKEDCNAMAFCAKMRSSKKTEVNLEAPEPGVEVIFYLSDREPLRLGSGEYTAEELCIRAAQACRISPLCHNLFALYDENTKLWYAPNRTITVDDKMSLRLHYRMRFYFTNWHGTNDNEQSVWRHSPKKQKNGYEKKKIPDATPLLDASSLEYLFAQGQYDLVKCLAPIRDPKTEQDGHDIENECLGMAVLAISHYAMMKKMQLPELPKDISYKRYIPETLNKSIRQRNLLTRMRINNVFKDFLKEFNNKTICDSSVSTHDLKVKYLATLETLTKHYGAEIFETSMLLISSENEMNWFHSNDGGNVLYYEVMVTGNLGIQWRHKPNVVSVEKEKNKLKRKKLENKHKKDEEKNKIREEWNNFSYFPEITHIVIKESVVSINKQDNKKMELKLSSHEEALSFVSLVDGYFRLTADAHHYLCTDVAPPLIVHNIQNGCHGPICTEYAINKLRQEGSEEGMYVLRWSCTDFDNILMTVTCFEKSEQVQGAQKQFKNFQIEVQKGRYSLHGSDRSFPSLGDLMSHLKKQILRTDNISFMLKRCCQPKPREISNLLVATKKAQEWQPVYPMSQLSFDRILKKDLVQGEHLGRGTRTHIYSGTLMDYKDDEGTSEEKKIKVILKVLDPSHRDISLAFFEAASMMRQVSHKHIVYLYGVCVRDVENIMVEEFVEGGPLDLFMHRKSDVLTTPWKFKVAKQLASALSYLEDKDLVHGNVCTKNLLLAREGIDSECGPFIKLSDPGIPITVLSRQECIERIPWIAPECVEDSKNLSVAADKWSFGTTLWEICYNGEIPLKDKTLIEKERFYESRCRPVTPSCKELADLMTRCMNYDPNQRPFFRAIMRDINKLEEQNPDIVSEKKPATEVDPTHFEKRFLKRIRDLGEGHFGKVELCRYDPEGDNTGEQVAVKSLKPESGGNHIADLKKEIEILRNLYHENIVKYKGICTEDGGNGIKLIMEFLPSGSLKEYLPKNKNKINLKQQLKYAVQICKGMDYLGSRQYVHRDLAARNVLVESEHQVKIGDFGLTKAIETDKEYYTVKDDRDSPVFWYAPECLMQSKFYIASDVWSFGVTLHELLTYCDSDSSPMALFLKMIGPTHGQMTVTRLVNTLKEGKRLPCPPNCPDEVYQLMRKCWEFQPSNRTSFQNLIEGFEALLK

In general, inhibition refers to the relative decrease from the control value, in per cent. Broadly, the solubility is the dissolved amount per volume that the medium holds. Regarding `CC(C)S(=O)(=O)c1ccccc1Nc1nc(Nc2ccc3c(c2)OCCOCCNCCO3)nc2[nH]ccc12` [Example 97, N^2-(2,3,6,7,8,9-hexahydro-5H-benzo[b][1,4,7]trioxa[10]azacyclododecan-13-yl)-N^4-(2-(isopropylsulfonyl)phenyl)-7H-pyrrolo[2,3-d]pyrimidin-2,4-diamine], the inhibition at 0.1 µM on TYK2 (at 100 nM) was 40 to 79%; on JAK1 (at 100 nM), 40 to 79%; on JAK3 (at 100 nM), above 80%; on CDK9, 40 to 79%; on JAK2 (at 100 nM), above 80%; at CDK7 (at 100 nM), above 80%. Besides, on LRRK2 [1] (at 100 nM), the inhibition at 0.1 µM was above 80%. Also, the inhibition at 0.01 µM on JAK3 is 40 to 79%; at JAK2, above 80%; at CDK7 (at 10 nM), 40 to 79%; at LRRK2 [1], above 80%. The compound further gave a solubility at 1 h in data set [2] above 4330 µg/mL. The same compound gave a solubility in data set [2] of 180 µg/mL (≈ 326 µM).
The term IC50 denotes the concentration at which inhibition is half-maximal. In data set [2], `CN1CCOc2ccc(Nc3ncc(C(F)(F)F)c(NCCP(C)(C)=O)n3)cc2OCC1` [Example 86, dimethyl(2-((2-((4-methyl-3,4,5,6-tetrahydro-2H-benzo[b][1,4,7]dioxazolin-9-yl)amino)-5-(trifluoromethyl)pyrimidin-4-yl)amino)ethyl)phosphine oxide] returned a solubility at 1 h above 3830 µg/mL and a solubility of 688 µg/mL (≈ 1450 µM). At LRRK2 [3], this compound gave an IC50 below 100 nM.
With `CN1CCOCCOc2cc(Nc3nc(-c4cnn([C@@H](CC#N)C5CCCC5)c4)c4cc[nH]c4n3)ccc2OCC1` [Example 75, (S)-3-cyclopentyl-3-(4-(2-((7-methyl-2,3,6,7,8,9-hexahydro-5H-benzo[b][1,4,7]trioxa[10]azacyclododecan-13-yl)amino)-7H-pyrrolo[2,3-d]pyrimidin-4-yl)-1H-pyrazol-1-yl) propionitrile], the inhibition at 0.01 µM at TYK2 (at 10 nM), on JAK1 (at 10 nM), on JAK3, at JAK2 and at LRRK2 [1] was above 80% in each case. For the same compound, in data set [2], the solubility at 1 h was above 3500 µg/mL. The solubility in [2] came to 120 µg/mL (≈ 216 µM).
